In article PMC6339655 (International Journal of Nanomedicine, 2019):
Values after ≈ are worked out from the molar mass of the structure shown.

System: C. albicans (ATCC-90028)
Test: MIC by colony-forming assay
Format: cell-based
Conditions: Candida albicans, ATCC90028, 48 h

Structure (SMILES): C[C@@H]1C/C=C/C=C/C=C/C=C/[C@H](O[C@@H]2O[C@H](C)[C@@H](O)[C@H](N)[C@@H]2O)C[C@@H]2O[C@](O)(C[C@@H](O)C[C@H]3O[C@@H]3/C=C/C(=O)O1)C[C@H](O)[C@H]2C(=O)O [natamycin]
- MIC: 64 µg/mL (≈ 96.1 µM)
